The text below walks through data of ChEMBL document CHEMBL1130052, “Substituted [(4-phenylpiperazinyl)-methyl]benzamides: selective dopamine D4 agonists” (J Med Chem, 1997).

pKi: −log10 of the molar value.

For one test, the target named is D(2) dopamine receptor (Homo sapiens, UniProt P14416). The test is described as follows: Binding affinity for human Dopamine receptor D2 expressed in CHO K1 transfected cells using [3H]spiperone as radioligand. The test is classed as cell-based.
The target of another test is T1, D(4) dopamine receptor (Homo sapiens, UniProt P21917).
T1 sequence (P21917 whole entry): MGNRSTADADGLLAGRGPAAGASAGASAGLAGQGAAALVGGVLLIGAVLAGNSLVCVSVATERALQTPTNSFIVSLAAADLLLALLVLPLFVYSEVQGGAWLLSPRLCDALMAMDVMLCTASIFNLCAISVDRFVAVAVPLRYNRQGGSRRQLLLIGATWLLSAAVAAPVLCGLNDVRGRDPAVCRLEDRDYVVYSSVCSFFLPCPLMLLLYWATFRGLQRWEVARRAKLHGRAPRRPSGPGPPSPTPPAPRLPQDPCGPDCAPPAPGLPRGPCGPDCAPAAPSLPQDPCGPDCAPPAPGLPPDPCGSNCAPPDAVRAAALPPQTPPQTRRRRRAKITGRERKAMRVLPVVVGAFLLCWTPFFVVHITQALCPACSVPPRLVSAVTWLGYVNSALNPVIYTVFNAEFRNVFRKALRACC
Description: biochemical.

The next test addresses D(3) dopamine receptor (Homo sapiens, UniProt P35462). Description: Binding affinity for human Dopamine receptor D3 expressed in CHO K1 transfected cells using [3H]spiperone as radioligand. The test is classed as cell-based.
Test [1] addresses 5-hydroxytryptamine receptor 2A (Homo sapiens, UniProt P28223). Description: Binding affinity at 5-hydroxytryptamine 2A receptor.
Test [2] concerns the target T2, 5-hydroxytryptamine receptor 1A (Mus musculus, UniProt Q64264).
T2 sequence (Q64264 whole entry): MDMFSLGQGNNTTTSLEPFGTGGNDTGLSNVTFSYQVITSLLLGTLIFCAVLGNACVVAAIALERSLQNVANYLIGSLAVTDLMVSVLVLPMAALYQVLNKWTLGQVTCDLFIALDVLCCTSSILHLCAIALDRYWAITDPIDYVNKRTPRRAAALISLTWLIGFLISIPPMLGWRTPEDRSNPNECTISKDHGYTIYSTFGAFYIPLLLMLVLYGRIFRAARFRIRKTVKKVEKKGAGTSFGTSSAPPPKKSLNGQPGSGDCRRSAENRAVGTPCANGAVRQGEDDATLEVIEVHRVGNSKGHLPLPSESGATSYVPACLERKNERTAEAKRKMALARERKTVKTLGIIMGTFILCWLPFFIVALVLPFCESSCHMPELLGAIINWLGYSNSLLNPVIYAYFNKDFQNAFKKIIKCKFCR
The test is described as follows: Binding affinity at 5-hydroxytryptamine 1A receptor.

Chain of D(3) dopamine receptor (P35462 whole entry): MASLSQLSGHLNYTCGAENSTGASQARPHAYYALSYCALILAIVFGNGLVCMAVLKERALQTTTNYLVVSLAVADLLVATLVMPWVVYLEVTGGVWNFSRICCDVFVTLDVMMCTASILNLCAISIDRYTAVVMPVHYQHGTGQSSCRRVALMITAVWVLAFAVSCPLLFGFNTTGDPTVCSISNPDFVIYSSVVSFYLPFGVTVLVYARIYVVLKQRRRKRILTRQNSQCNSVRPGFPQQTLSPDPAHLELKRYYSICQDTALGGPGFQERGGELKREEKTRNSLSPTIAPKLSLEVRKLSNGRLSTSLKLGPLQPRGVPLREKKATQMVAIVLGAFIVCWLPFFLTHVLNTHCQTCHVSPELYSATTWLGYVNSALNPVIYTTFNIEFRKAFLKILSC
Chain of D(2) dopamine receptor (P14416 whole entry): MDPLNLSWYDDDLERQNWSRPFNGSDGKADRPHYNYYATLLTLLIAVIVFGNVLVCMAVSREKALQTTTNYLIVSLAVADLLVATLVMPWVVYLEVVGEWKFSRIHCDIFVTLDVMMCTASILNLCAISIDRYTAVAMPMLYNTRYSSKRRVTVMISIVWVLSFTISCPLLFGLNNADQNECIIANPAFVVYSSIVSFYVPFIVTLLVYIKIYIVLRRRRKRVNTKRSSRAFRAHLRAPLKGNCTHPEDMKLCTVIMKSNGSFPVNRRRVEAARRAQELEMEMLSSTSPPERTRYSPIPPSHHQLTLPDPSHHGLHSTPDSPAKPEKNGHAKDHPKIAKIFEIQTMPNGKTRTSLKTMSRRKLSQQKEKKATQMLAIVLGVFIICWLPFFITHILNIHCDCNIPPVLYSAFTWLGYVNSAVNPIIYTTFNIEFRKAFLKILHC
Chain of 5-hydroxytryptamine receptor 2A (P28223 whole entry): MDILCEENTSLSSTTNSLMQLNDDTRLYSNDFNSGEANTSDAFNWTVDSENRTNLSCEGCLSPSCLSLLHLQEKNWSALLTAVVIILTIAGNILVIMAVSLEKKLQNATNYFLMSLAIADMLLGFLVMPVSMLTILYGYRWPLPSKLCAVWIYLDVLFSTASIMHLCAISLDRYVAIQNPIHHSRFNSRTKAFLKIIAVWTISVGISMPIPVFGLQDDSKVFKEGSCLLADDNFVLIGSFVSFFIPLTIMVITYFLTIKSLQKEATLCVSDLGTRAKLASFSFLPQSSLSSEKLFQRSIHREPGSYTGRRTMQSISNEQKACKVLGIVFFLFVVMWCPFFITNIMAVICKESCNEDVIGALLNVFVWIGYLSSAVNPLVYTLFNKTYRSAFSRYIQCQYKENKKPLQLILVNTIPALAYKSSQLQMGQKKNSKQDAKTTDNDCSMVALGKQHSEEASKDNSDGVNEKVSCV
Description for D(4) dopamine receptor: Binding affinity for human Dopamine receptor D4 expressed in CHO K1 transfected cells using [3H]spiperone as radioligand

On to `O=C(NCN1CCN(c2ccccc2Cl)CC1)c1cccc(Cl)c1`, for which the pKi (as a rule, the negative decadic logarithm of the Ki, by convention in mol/L) on D(2) dopamine receptor was 5.62; on D(4) dopamine receptor it was 7.39; at D(3) dopamine receptor it was 6.44.
Take `COc1ccccc1N1CCN(CNC(=O)c2cccc(C)c2)CC1`: the pKi on D(2) dopamine receptor is 6.08; on D(4) dopamine receptor it was 8.17; at D(3) dopamine receptor it was 5.61.
Regarding `O=C(NCN1CCN(c2ccccc2Cl)CC1)c1ccc(Cl)cc1`, the pKi on D(4) dopamine receptor is 8.28; at D(3) dopamine receptor it was 7.18.
As for `Cc1cccc(C(=O)NCN2CCN(c3ccccc3Cl)CC2)c1`, the pKi is 5.88 at D(2) dopamine receptor, 7.57 on D(4) dopamine receptor and 6.33 on D(3) dopamine receptor.
With `O=C(NCN1CCN(c2ccccc2Cl)CC1)c1ccccc1`, the pKi on D(2) dopamine receptor is 5.82; at D(4) dopamine receptor it was 7.49; at D(3) dopamine receptor, 6.75.
On to `Cc1ccc(C(=O)NCN2CCN(c3ccccc3C#N)CC2)cc1`, for which the pKi is 5.94 on D(2) dopamine receptor, 8.19 on D(4) dopamine receptor and 6.42 at D(3) dopamine receptor.
For `N#Cc1ccccc1N1CCN(CNC(=O)c2ccccc2)CC1`, the pKi was 5.38 on D(2) dopamine receptor, 7.57 at D(4) dopamine receptor and less than 5.52 on D(3) dopamine receptor.
Regarding `COc1ccccc1N1CCN(CNC(=O)c2ccccc2)CC1`, the values for the pKi on D(4) dopamine receptor and on D(3) dopamine receptor were 7.66 and 5.61, respectively.
As to `COc1ccccc1N1CCN(CNC(=O)c2cccc(Cl)c2)CC1`, the pKi was 6.35 on D(2) dopamine receptor, 7.82 at D(4) dopamine receptor and 5.84 on D(3) dopamine receptor.
With `COc1ccccc1N1CCN(CNC(=O)c2ccc(Cl)cc2)CC1`, the pKi was 6.46 at D(2) dopamine receptor, 7.85 on D(4) dopamine receptor and 6.57 at D(3) dopamine receptor.
Take `N#Cc1ccccc1N1CCN(CNC(=O)c2cccc(Cl)c2)CC1`: the values for the negative-log Ki (pKi) at D(2) dopamine receptor, at D(4) dopamine receptor and at D(3) dopamine receptor were 6.05, 7.47 and 5.64, respectively.
As to `N#Cc1ccccc1N1CCN(CNC(=O)c2ccc(Cl)cc2)CC1`, the negative-log Ki (pKi) is 6.03 on D(2) dopamine receptor, 8.26 at D(4) dopamine receptor and 6.22 on D(3) dopamine receptor.
Consider `COc1ccccc1N1CCN(CNC(=O)c2ccc(C)cc2)CC1`, for which the negative logarithm of the Ki (pKi) was 6.54 at D(2) dopamine receptor, 8.11 at D(4) dopamine receptor and 6.76 at D(3) dopamine receptor.
Take `Cc1ccc(C(=O)NCN2CCN(c3ccccc3Cl)CC2)cc1`: the figures for the pKi on D(2) dopamine receptor, on D(4) dopamine receptor and at D(3) dopamine receptor were 6.33, 7.92 and 7.31, respectively.
As to `Cc1cccc(C(=O)NCN2CCN(c3ccccc3C#N)CC2)c1` [PD-168,077], the negative logarithm of the Ki (pKi) at D(2) dopamine receptor is 5.43; in test [1], 5.40; on D(3) dopamine receptor it was 5.55; in test [2], 6.41.
